From patent US8536354B2, “Steroidal ligands and their use in gene switch modulation” (Intrexon Corporation, priority 2008, dated 2013)
Like-named read-outs stand apart in the source and are kept apart here.

Experiments:
[1] = molecular target: wild-type Drosophila melanogaster EcR (DmEcR; GAL4-EcR DEF with VP16-RXR-USP chimera) (Drosophila melanogaster, UniProt P34021); experiment: Two-hybrid gene switch assay, luciferase reporter, wild-type DmEcR, mouse NIH3T3 cells; type: cell-based
[2] = molecular target: BmEcR (GAL4-EcR DEF with VP16-RXR-USP chimera) (Bombyx mori, UniProt P49881); experiment: Two-hybrid gene switch assay, luciferase reporter, BmEcR, mouse NIH3T3 cells; type: cell-based
Chain of BmEcR (GAL4-EcR DEF with VP16-RXR-USP chimera) (P49881 other isoform, or with tags, fused parts or gaps, change not shown): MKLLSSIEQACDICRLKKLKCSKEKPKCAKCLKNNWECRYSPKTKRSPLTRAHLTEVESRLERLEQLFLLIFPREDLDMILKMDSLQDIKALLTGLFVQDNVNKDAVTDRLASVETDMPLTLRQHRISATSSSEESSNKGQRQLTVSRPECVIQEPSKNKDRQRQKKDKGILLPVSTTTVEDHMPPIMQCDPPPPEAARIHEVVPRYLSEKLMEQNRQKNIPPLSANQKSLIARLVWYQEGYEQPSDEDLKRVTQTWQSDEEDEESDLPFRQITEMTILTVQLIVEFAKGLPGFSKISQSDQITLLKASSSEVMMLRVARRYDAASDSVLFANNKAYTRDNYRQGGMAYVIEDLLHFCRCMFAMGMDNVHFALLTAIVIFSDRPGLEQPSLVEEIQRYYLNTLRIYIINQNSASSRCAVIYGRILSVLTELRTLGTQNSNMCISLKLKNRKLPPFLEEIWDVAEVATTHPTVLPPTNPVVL

[3] = molecular target: T1, MsEcR (GAL4-EcR DEF with VP16-RXR-USP chimera) (Manduca sexta, UniProt P49883); experiment: Two-hybrid gene switch assay, luciferase reporter, MsEcR, mouse NIH3T3 cells
T1 sequence (P49883 1-556): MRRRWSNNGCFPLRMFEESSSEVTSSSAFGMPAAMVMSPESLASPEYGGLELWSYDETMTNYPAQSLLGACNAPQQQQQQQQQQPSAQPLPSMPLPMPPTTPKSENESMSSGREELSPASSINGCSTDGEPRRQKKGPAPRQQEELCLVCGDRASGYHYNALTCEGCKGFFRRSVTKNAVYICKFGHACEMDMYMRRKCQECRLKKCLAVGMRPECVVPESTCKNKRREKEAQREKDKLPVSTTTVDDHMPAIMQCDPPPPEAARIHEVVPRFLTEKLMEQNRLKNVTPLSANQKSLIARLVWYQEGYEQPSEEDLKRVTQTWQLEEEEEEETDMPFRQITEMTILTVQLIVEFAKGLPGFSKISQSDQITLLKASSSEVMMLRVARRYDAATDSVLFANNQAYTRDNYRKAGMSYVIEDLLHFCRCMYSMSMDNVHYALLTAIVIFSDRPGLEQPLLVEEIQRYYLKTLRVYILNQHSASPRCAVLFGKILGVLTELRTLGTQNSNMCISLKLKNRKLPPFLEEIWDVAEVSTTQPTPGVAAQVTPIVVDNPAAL
T1 sequence (P28702 1-533 partner): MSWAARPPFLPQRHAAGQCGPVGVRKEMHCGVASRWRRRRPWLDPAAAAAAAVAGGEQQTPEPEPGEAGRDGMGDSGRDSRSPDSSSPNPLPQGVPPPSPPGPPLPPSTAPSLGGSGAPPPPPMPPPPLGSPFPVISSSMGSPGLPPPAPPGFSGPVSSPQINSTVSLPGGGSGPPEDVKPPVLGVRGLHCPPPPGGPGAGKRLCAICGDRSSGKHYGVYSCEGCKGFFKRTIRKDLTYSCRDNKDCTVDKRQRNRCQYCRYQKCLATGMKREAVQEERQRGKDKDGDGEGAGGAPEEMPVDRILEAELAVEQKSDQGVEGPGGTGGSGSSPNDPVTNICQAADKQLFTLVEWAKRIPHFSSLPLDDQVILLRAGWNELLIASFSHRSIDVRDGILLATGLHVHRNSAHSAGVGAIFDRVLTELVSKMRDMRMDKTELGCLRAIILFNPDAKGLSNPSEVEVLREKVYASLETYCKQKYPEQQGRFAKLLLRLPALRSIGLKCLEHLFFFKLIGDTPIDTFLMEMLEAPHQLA

[4] = molecular target: T2, BaEcR (GAL4-EcR DEF with VP16-RXR-USP chimera) (Bemisia tabaci, UniProt A0A6M3RDR8); experiment: Two-hybrid gene switch assay, luciferase reporter, BaEcR, mouse NIH3T3 cells; conditions: EC50, FIG. 14A/14B, GAL4-EcR(DEF) with VP16-RXR-USP chimera
T2 sequence (A0A6M3RDR8 115-530): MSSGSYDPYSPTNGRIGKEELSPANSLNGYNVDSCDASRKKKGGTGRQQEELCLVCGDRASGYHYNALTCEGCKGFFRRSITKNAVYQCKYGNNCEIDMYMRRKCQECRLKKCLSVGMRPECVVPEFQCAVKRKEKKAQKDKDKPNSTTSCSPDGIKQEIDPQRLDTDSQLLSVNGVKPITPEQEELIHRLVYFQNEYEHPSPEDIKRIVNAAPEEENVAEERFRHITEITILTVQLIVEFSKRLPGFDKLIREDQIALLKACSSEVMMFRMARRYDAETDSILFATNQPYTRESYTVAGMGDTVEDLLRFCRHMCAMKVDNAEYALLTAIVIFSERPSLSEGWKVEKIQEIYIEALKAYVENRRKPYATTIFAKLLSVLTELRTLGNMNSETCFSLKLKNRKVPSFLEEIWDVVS
T2 sequence (P28702 1-533 partner): T1 sequence (P28702 1-533 partner)

[5] = system: NcEcR (GAL4-EcR DEF with VP16-RXR partner); experiment: Two-hybrid gene switch assay, luciferase reporter, NcEcR, mouse NIH3T3 cells
[6] = molecular target: T3, AmaEcR (GAL4-EcR DEF with VP16-RXR-USP chimera) (Amblyomma americanum, UniProt O44338); experiment: Two-hybrid gene switch assay, luciferase reporter, AmaEcR, mouse NIH3T3 cells
T3 sequence (O44338 255-570): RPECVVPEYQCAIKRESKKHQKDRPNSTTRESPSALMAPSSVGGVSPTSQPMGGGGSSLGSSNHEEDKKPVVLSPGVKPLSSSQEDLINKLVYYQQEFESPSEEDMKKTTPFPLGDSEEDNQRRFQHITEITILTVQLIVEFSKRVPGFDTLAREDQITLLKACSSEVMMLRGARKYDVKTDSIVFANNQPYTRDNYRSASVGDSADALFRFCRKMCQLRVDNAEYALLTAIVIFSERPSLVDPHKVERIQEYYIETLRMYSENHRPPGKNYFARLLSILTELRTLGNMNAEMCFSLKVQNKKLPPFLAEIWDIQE
T3 sequence (P28702 1-533 partner): T1 sequence (P28702 1-533 partner)

[7] = EC50, FIG. 14A/14B, GAL4-EcR(DEF) with VP16-RXR-USP chimera
[8] = EC50, FIG. 13A/13B, GAL4-EcR(DEF) with VP16-RXR-USP chimera
[9] = EC50, FIG. 16, GAL4-EcR (DEF) / VP16-RXR-USP chimera
[10] = EC50, FIG. 13A/13B, BmEcR, GAL4-EcR(DEF) with VP16-RXR-USP chimera

Chain of wild-type Drosophila melanogaster EcR (DmEcR; GAL4-EcR DEF with VP16-RXR-USP chimera) (P34021 with tags, fused parts or gaps limits assumed): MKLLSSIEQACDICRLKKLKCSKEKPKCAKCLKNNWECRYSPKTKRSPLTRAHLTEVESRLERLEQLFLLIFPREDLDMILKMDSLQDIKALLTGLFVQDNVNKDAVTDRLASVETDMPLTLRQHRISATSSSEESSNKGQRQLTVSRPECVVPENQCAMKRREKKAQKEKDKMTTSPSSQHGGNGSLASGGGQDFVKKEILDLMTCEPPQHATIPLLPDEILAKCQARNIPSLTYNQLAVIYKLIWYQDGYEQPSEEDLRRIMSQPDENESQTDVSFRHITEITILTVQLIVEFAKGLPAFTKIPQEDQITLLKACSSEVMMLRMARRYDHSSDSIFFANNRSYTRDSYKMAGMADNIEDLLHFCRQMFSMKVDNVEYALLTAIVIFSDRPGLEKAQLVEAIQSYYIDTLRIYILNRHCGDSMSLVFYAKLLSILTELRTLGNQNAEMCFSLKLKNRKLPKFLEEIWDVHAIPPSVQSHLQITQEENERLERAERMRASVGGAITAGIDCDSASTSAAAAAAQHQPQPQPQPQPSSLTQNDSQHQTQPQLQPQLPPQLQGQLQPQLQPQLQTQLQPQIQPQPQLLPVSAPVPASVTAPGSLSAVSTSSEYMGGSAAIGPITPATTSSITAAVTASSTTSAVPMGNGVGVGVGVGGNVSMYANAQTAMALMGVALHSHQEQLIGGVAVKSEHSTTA

| SMILES | EC50 [1, 7] [µM] | EC50 ([2]; read-out: EC50) [µM] | EC50 [3, 8] [µM] | EC50 [4] [µM] | EC50 ([5]; FIG. 14A/14B, GAL4-EcR(DEF)) [µM] | EC50 [6, 7] [µM] | EC50 [1, 9] [µM] | EC50 [2, 10] [µM] | EC50 ([2]; EC50, FIG. 15, BmEcR, GAL4-EcR (DEF) / VP16-RXR-USP chimera) [µM] | EC50 ([3]; EC50, FIG. 15, GAL4-EcR (DEF) / VP16-RXR-USP chimera) [µM] | EC50 ([5]; FIG. 16, GAL4-EcR (DEF)) [µM] | EC50 [6, 9] [µM] |
| --- | --- | --- | --- | --- | --- | --- | --- | --- | --- | --- | --- | --- |
| CC(CC(O)C(C)(O)C1CCC2(O)C3=CC(=O)C4CC(O)C(O)CC4(C)C3CCC12C)C(C)(C)O (centres unmarked) [makisterone A] | ~20 | > 33 | ~10 | ~15 | 0.117 | 1.4 | – | – | – | – | – | – |
| CCC(CC(O)C(C)(O)C1CCC2(O)C3=CC(=O)C4CC(O)C(O)CC4(C)C3CCC12C)C(C)(C)O (centres unmarked) [makisterone C] | ~5 | > 33 | ~4 | ~3.3 | ~0.1 | ~2 | – | – | – | – | – | – |
| CC(C)(O)CC[C@@H](O)[C@](C)(O)[C@H]1CC[C@@]2(O)C3=CC(=O)[C@]4(O)C[C@@H](O)[C@@H](O)C[C@]4(C)[C@H]3CC[C@]12C [polypodine B] | ~2 | – | ~2 | ~3.3 | ~0.1 | ~3.3 | 2.54 | ~8 | ~9 | 4.35 | 0.05 | ~0.3 |
| CC(C)=CC[C@@H](O)[C@](C)(O)[C@H]1CC[C@@]2(O)C3=CC(=O)[C@@H]4C[C@@H](O)[C@@H](O)C[C@]4(C)[C@H]3CC[C@]12C [stachysterone C] | 0.385 | – | 0.672 | 0.658 | 0.013 | ~0.1 | – | ~5 | – | – | – | – |
| CCCCCC(=O)OC1CC2(C)C(C(C)(O)C(O)CCC(C)(C)O)CCC2(O)C2=CC(=O)C3CC(O)C(O)CC3(C)C21 (centres unmarked) [turkesterone-11 a -hexanoate] | > 33 | – | > 33 | > 33 | ~7 | ~10 | – | > 33 | – | – | – | – |
| CCC(=O)OC1CC2(C)C(C(C)(O)C(O)CCC(C)(C)O)CCC2(O)C2=CC(=O)C3CC(O)C(O)CC3(C)C21 (centres unmarked) [turkesterone-11 a -propionate] | > 33 | – | > 33 | > 33 | ~10 | ~10 | – | > 33 | – | – | – | – |
| CCCCCCCCCC(=O)OC1CC2(C)C(C(C)(O)C(O)CCC(C)(C)O)CCC2(O)C2=CC(=O)C3CC(O)C(O)CC3(C)C21 (centres unmarked) [turkesterone-11a-decanoate] | > 33 | – | > 33 | > 33 | > 33 | > 33 | – | > 33 | – | – | – | – |
| CC(C)(O)CC[C@@H](O)[C@](C)(O)[C@H]1CC[C@@]2(O)C3=CC(=O)[C@@H]4C[C@@H](O)[C@@H](O)C[C@]4(C)[C@H]3[C@H](O)C[C@]12C [turkesterone] | ~15 | – | ~12 | ~20 | 1.35 | ~10 | – | > 33 | – | – | – | – |
